Reference: patent US20230218563A1, “METHODS FOR TREATING OR PREVENTING CHRONIC KIDNEY DISEASE” (Arthrosi Therapeutics, Inc., priority 2020, published 2023)
Where two headings read alike, the source gives them in different places.

Legend:
[1] = Solubility of test articles in HBSS assay buffer; details: all tested concentrations, highest 10 μM
Procedure: Before the experiment, the medium was removed and the cells were washed twice with 100 μL of HBSS without Cl^−. Uptake experiments were carried out at 37±1° C. in 50 μL of HBSS without Cl^−, pH 7.4 containing the probe substrate (20 μM uric acid) and the test article (TA) or solvent.

[2] = system: urine albumin-to-creatinine ratio (UACR); assay: Phase 2a study, UACR in a subject with albuminuria; format: in vivo, human; details: one subject with albuminuria, baseline 96 mg/g; sequential 7-day periods: Compound 1 50 mg (Day 7), Compound 1 50 mg/allopurinol 300 mg (Day 14), allopurinol 300 mg (Day 21)
Source text: Urine samples were collected for assessment of uric acid excretion. Laboratory safety tests, vital signs, and electrocardiograms were collected throughout the study.

[3] = molecular target: T1, human URAT1 uptake transporter (Homo sapiens, UniProt Q96S37); assay: Inhibition of URAT1 mediated uric acid uptake in MDCKII cells stably expressing human URAT1; format: cell-based
T1 construct: expressed in transfected cells
T1 sequence (Q96S37 1-553): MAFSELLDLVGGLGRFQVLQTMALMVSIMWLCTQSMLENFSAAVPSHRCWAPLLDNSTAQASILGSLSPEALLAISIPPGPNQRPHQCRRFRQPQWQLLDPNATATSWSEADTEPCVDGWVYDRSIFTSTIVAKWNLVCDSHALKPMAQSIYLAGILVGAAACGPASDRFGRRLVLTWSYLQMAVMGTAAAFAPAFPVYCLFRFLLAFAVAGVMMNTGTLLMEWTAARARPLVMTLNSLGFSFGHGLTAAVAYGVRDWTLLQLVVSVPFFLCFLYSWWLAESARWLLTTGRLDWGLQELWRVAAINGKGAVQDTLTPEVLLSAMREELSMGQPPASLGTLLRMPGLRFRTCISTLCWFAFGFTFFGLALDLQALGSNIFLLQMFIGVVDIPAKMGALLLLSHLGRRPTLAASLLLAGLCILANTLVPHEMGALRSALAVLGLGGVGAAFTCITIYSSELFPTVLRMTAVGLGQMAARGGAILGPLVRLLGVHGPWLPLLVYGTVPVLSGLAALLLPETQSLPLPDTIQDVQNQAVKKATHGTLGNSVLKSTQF
Procedure: Uptake experiments were performed using MDCKII cells stably expressing the human URAT1 uptake transporter. Cells were cultured at 37±1° C. in an atmosphere of 95:5 air:CO2 and were plated onto standard 96-well tissue culture plates at the cell number described in Table 1.
Radiolabeled probe substrate transport was determined by measuring an aliquot (35 μL) from each well for liquid scintillation counting.

[4] = Phase 1 multiple ascending dose study, plasma pharmacokinetics in healthy adult males; format: in vivo; details: male, human, oral, fasted
Source text: (§1) An additional 6 subjects received placebo.
Accumulation were approximately 1.3 to 1.4 fold for C. and 1.4 to 1.5 fold for AUC0.24 (Table 12 and FIG. 8).

[5] = 4-week toxicity study in cynomolgus monkeys; format: in vivo
Source text: On Day 29, surviving TS animals (all animals in study) were euthanized and subjected to a full gross necropsy, which included a macroscopic examination of the external surface of the body, all orifices, cranial cavity, external surface of the brain, the thoracic, abdominal and pelvic cavities and their viscera, cervical areas, carcass and genitalia. Organs were weighed as soon as possible from all main study animals at the scheduled necropsies. Tissues from animals at the terminal sacrifice, from animals found dead or moribund-sacrificed, and gross lesions from all animals, were embedded in paraffin, sectioned, stained with hematoxylin and eosin and examined microscopically by a board certified veterinary pathologist.

serum uric acid (sUA) [6] = assay: Phase 2a cross-over study in adults with gout, serum uric acid; format: in vivo, human
serum uric acid (sUA) [7] = assay: Phase 1 multiple ascending dose study, pharmacodynamics (serum uric acid) in healthy adult males; format: in vivo, human; details: for reduction of sUA concentration at trough / reduction of sUA concentration, maximum: fasted, Day 10
Source text: as §1
Steady-state sUA lowering effect was achieved after approximately 5 days.

[8] = cynomolgus monkeys, oral 10, 30 and 150 mg/kg/day, 28 days
[9] = gout patients (sUA>7 mg/dL), once daily, Compound 1 50 mg, febuxostat 40 mg, allopurinol 300 mg, alone or combined

In the case of `[2H]c1c([2H])c([2H])c2c(C(=O)c3cc(Br)c(O)c(Br)c3)c(C(C)O)oc2c1[2H]` (racemic) [Compound 1, (3,5-dibromo-4-hydroxyphenyl)(2-(1-hydroxyethyl)benzofuran-3-yl-4,5,6,7-d4)methanone], the “solubility in HBSS buffer” value [1] is reported as “soluble”, the UACR [2] is reported as 41 mg/g and the “UACR % change from baseline” value [2] is reported as −57.4%. For the same compound, the “in vitro URAT1 potency compared with benzbromarone” value [3] was “better in vitro URAT1 potency than benzbromarone”, the Cmax ([4]; 25 mg, 25 mg once daily, Day 1) was 1760 ng/mL and the AUC(0-t) ([4]; 25 mg, 25 mg once daily, Day 1, read-out: AUC0-24) was 21200 ng·h/mL. It also gave a Tmax ([4]; 25 mg, 25 mg once daily, Day 1, read-out: Tmax (median)) of 3.5 h, a Cmax ([4]; 25 mg, 25 mg once daily, Day 10) of 2480 ng/mL and an AUC(0-t) ([4]; 25 mg, 25 mg once daily, Day 10, read-out: AUC0-24) of 30800 ng·h/mL. The Tmax ([4]; 25 mg, 25 mg once daily, Day 10, read-out: Tmax (median)) was 2.25 h, the Cmax ([4]; 50 mg, 50 mg once daily, Day 1) was 3550 ng/mL and the AUC(0-t) ([4]; 50 mg, 50 mg once daily, Day 1, read-out: AUC0-24) was 39600 ng·h/mL. The Tmax ([4]; 50 mg, 50 mg once daily, Day 1, read-out: Tmax (median)) was 2 h, the Cmax ([4]; 50 mg, 50 mg once daily, Day 10) was 4590 ng/mL and the AUC(0-t) ([4]; 50 mg, 50 mg once daily, Day 10, read-out: AUC0-24) was 58200 ng·h/mL. For the same compound, the Tmax ([4]; 50 mg, 50 mg once daily, Day 10, read-out: Tmax (median)) was 2.5 h, the Cmax ([4]; 75 mg, 75 mg once daily, Day 1) was 5200 ng/mL and the AUC(0-t) ([4]; 75 mg, 75 mg once daily, Day 1, read-out: AUC0-24) was 55600 ng·h/mL. For the same compound, the Tmax ([4]; 75 mg, 75 mg once daily, Day 1, read-out: Tmax (median)) was 1.75 h, the Cmax ([4]; 75 mg, 75 mg once daily, Day 10) was 6770 ng/mL and the AUC(0-t) ([4]; 75 mg, 75 mg once daily, Day 10, read-out: AUC0-24) was 84700 ng·h/mL. For the same compound, the Tmax ([4]; 75 mg, 75 mg once daily, Day 10, read-out: Tmax (median)) was 1.5 h, the “NOAEL, human equivalent” value ([5]; cynomolgus monkey, in vivo) was 600 mg and the NOAEL at 28 days ([5]; cynomolgus monkey, in vivo, po) was 30 mg/kg. For the same compound, the “findings after 4 week recovery period” value ([5]; cynomolgus monkeys, 28 days oral then 4 week recovery) was “No finding”, the liver weight ([5]; cynomolgus monkeys, male, 150 mg/kg/day, 28 days) was “trended higher in male at 150 mg/kg/day, but no statistical difference” and the clinical signs [5, 8] was “No abnormal clinical signs”. For the same compound, the “effect on food consumption, body weight” value [5, 8] was “no effect”, the mortality [5, 8] was “No mortality” and the “patients with sUA levels below 5 mg/dL” value (serum uric acid (sUA) [6]; [9]) was 93%. For the same compound, the “patients with sUA levels below 6 mg/dL” value (serum uric acid (sUA) [6]; [9]) was 96%, the “sUA level at 24 hr post-dose in all patients” value (serum uric acid (sUA) [6]; gout patients, 7 days dosing, 50 mg) was “below 6 mg/dL” and the “sUA after treatment in mildly renal impaired patients” value (serum uric acid (sUA) [6]; gout patients, Compound 1 50 mg once daily, from 8.6±1.1 mg/dL) was 4.5 ± 0.8 mg/dL. The “mean sUA level reached at maximum” value (serum uric acid (sUA) [6]; gout patients, mean baseline 8.9 mg/dL, once daily, Compound 1 50 mg, febuxostat 40 mg, allopurinol 300 mg, alone (Day 7/Day 21) or combined) was 4.2 mg/dL, the “reduction of mean sUA from baseline” value (serum uric acid (sUA) [6]; gout patients, once daily, Compound 1 50 mg, febuxostat 40 mg, allopurinol 300 mg, alone (Day 7/Day 21) or combined) was 53% and the “sUA % change from baseline” value (serum uric acid (sUA) [6]; one subject with albuminuria, sequential 7-day periods: Compound 1 50 mg (Day 7), Compound 1 50 mg/allopurinol 300 mg (Day 14), allopurinol 300 mg (Day 21)) was −50.9%. The “reduction of sUA concentration at trough” value (serum uric acid (sUA) [7]; 25 mg oral capsules once daily) was 41%, the “reduction of sUA concentration, maximum” value (serum uric acid (sUA) [7]; 25 mg oral capsules once daily) was “up to 44%” and the “reduction of sUA concentration at trough” value (serum uric acid (sUA) [7]; 50 mg oral capsules once daily) was 58%. For the same compound, the “reduction of sUA concentration, maximum” value (serum uric acid (sUA) [7]; 50 mg oral capsules once daily) was “up to 67%”, the “reduction of sUA concentration at trough” value (serum uric acid (sUA) [7]; 75 mg oral capsules once daily) was 65% and the “reduction of sUA concentration, maximum” value (serum uric acid (sUA) [7]; 75 mg oral capsules once daily) was “up to 69%”. For the same compound, the “time to steady-state sUA lowering effect” value (serum uric acid (sUA) [7]; once-daily 25, 50 or 75 mg) was “approximately 5 days”.
